How the values were obtained:
Trypanosoma brucei [1] = assay: Antiparasitic activity against blood stream form Trypanosoma brucei assessed as parasitic growth inhibition incubated for 72 hrs by resazurin dye based fluorescence analysis; type: functional, organism-based
Pteridine reductase 1 = target: T1, Pteridine reductase 1 (Leishmania major, UniProt Q01782); assay: Inhibition of N-terminal his 6 tagged recombinant Leishmania major PTR1 expressed in Escherichia coli BL21 (DE3) cells preincubated for 10 mins followed by NADPH addition and measured after 10 to 50 mins by multilabel plate reader method
T1 sequence (Q01782 whole entry): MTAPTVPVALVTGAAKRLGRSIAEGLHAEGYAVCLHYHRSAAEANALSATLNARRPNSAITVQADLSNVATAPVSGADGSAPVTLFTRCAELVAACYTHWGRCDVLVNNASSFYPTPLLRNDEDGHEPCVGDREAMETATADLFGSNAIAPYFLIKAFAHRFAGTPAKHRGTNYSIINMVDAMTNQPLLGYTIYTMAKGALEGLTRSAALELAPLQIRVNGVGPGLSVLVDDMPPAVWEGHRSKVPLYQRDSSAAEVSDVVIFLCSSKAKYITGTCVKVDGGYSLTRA

Leishmania infantum = assay: Antiparasitic activity against Leishmania infantum intracellular amastigotes MHOM/BR/1972/BH46 infected in human THP-1 cells assessed as inhibition of parasitic growth at 50 uM pre-infected for 24 hrs followed by compound addition and measured after 48 hrs relative to control; type: functional; details: MHOM/BR/1972/BH46, THP-1
THP-1 = assay: Cytotoxicity against human THP-1 cells assessed as reduction in cell viability measured after 72 hrs by MTT assay; type: functional
[2] = Selectivity index, ratio of CC50 for human THP-1 cells to EC50 for bloodstream form Trypanosoma brucei; type: toxicity; details: read-out: Ratio CC50/EC50
[3] = Inhibition of N-terminal his 6 tagged recombinant Trypanosoma brucei PTR1 expressed in Escherichia coli BL21 (DE3) cells preincubated for 10 mins followed by NADPH addition and measured after 10 to 50 mins by multilabel plate reader method; type: cell-based
Trypanosoma brucei [4] = assay: Antiparasitic activity against blood stream form Trypanosoma brucei assessed as parasitic growth inhibition at 10 uM incubated for 72 hrs by resazurin dye based fluorescence analysis relative to control; type: functional; parameters: scale not given: the % may be the effect or the level left
[5] = Tmax in BALB/c mouse at 20 mg/kg, po measured upto 24 hrs by LC-MS/MS analysis; type: ADME, organism-based; details: in vivo
[6] = AUC last in BALB/c mouse at 20 mg/kg, po measured upto 24 hrs by LC-MS/MS analysis; type: ADME, organism-based; details: in vivo
[7] = Half life in BALB/c mouse at 20 mg/kg, po measured upto 24 hrs by LC-MS/MS analysis; type: ADME, organism-based; details: in vivo
[8] = Cmax in BALB/c mouse at 20 mg/kg, po measured upto 24 hrs by LC-MS/MS analysis; type: ADME, organism-based; details: in vivo

SMILES | EC50 (Trypanosoma brucei [1]) [nM] | IC50 (Pteridine reductase 1) [nM] | inhibition at 50 µM (Leishmania infantum) [%] | CC50 (THP-1) [nM] | selectivity ratio [2] | IC50 [3] [nM] | Activity (Trypanosoma brucei [4]) [%] | Tmax [5] [h] | AUC(0-t) at 24 h [6] [ng·h/mL] | half-life [7] [h] | Cmax [8] [ng/mL]
Nc1nc(N)c(C(C[N+](=O)[O-])c2cccc(Br)c2)c(N)n1 (stereo not given) | 650 | 58100 | 30.2 | 50000 | 118 | 50 | – | – | – | – | –
Nc1nc(N)c(C(C[N+](=O)[O-])c2ccc(Cl)cc2)c(N)n1 (stereo not given) | 1280 | – | – | 25000 | 19 | < 100 | – | – | – | – | –
COc1ccc(C(C[N+](=O)[O-])c2c(N)nc(N)nc2N)cc1OC (stereo not given) | 2330 | 2400 | 62.4 | 25000 | 11 | 120 | – | – | – | – | –
Cc1ccc(C(C[N+](=O)[O-])c2c(N)nc(N)nc2N)s1 (stereo not given) | 2410 | – | 15.4 | 100000 | 42 | 390 | – | – | – | – | –
CCCCCCCCCCCCCCCCOP(=O)([O-])OCC[N+](C)(C)C [MILTEFOSINE] | – | – | 1.29 | – | – | – | – | – | – | – | –
COc1cc(C(C[N+](=O)[O-])c2c(N)nc(N)nc2N)ccc1O (stereo not given) | 2130 | 19800 | 21.6 | 50000 | 23 | 70 | – | – | – | – | –
Nc1nc(N)c(C(C[N+](=O)[O-])c2ccc(Br)cc2)c(N)n1 (stereo not given) | 1590 | 64100 | 83.4 | 25000 | 16 | < 100 | – | – | – | – | –
Nc1nc(N)c(C(C[N+](=O)[O-])c2ccccc2OCc2ccccc2[N+](=O)[O-])c(N)n1 (stereo not given) | – | 46200 | 11.7 | – | – | 260 | 48 | – | – | – | –
Nc1nc(N)c(C(C[N+](=O)[O-])c2cccs2)c(N)n1 (stereo not given) | 3330 | 4900 | 22.5 | 50000 | 15 | 190 | – | – | – | – | –
Nc1nc(N)c(C(C[N+](=O)[O-])c2c[nH]c3ccccc23)c(N)n1 (stereo not given) | – | 13900 | 4 | – | – | < 100 | 28 | – | – | – | –
Nc1nc(N)c(C(C[N+](=O)[O-])c2ccc3c(c2)CCO3)c(N)n1 (stereo not given) | 4400 | 21300 | 21.1 | 50000 | 11 | 390 | – | – | – | – | –
Nc1nc(N)c(C(C[N+](=O)[O-])c2ccc(OCc3ccc(Cl)c(Cl)c3)cc2)c(N)n1 (stereo not given) | 340 | 49700 | 11.4 | 50000 | 147 | 220 | – | 2 | 435 | 3 | 63
Nc1nc(N)c(C(C[N+](=O)[O-])c2ccc3c(c2)OCO3)c(N)n1 (stereo not given) | 500 | – | – | 25000 | 50 | 250 | – | – | – | – | –
Nc1nc(N)c(C(C[N+](=O)[O-])c2ccco2)c(N)n1 (stereo not given) | 5050 | 63800 | – | 50000 | 10 | 160 | – | – | – | – | –
Nc1nc(N)c(C(C[N+](=O)[O-])c2ccccc2OCc2cccc(Cl)c2)c(N)n1 (stereo not given) | 400 | 51300 | 61 | 12500 | 31 | 600 | – | 0.5 | 1820 | 2.4 | 446
Nc1nc(N)c(C(C[N+](=O)[O-])c2ccc(Cl)c(Cl)c2)c(N)n1 (stereo not given) | 820 | 60200 | 53.9 | 25000 | 31 | 150 | – | – | – | – | –
Nc1nc(N)c(C(C[N+](=O)[O-])c2ccc3c(c2)OCCO3)c(N)n1 (stereo not given) | 1110 | 2500 | 54.4 | 12500 | 11 | 230 | – | 1 | 107 | 4.5 | 25
Nc1nc(N)c(C(C[N+](=O)[O-])c2cccc([N+](=O)[O-])c2)c(N)n1 (stereo not given) | 1190 | 63400 | 74.2 | 50000 | 42 | < 100 | – | – | – | – | –
Nc1cc(N)nc(N)n1 | – | 4010 | – | – | – | 2380 | – | – | – | – | –
COc1cccc(OC)c1C(C[N+](=O)[O-])c1c(N)nc(N)nc1N (stereo not given) | 1680 | 70700 | 79.8 | 12500 | 7 | 130 | – | – | – | – | –
Nc1nc(N)c(C(C[N+](=O)[O-])c2cccc3c2OCO3)c(N)n1 (stereo not given) | 1210 | 47600 | 36 | 12500 | 10 | 30 | – | 0.5 | 2700 | 2.1 | 399
Nc1nc(N)c(C(C[N+](=O)[O-])c2ccccc2OCc2ccccc2)c(N)n1 (stereo not given) | 600 | 51300 | 81.1 | > 100000 | > 167 | 240 | – | – | – | – | –
CCc1nc(N)nc(N)c1-c1ccc(Cl)cc1 [PYRIMETHAMINE] | – | – | – | – | – | 90 | – | – | – | – | –
